From patent US8815221B2, “Composition used for skin whitening, plant extracted skin whitening composition and composition having a skin whitening effect” (Industrial Technology Research Institute, priority 2009, dated 2014)
Values joined by “and” are separate entries in the source; they are usually repeats but may differ in a detail not shown here. Equal entries are not always repeated.

How the values were obtained:
[1] = molecular target: T1, Tyrosinase (Sigma T3824) (Agaricus bisporus, UniProt C7FF04); experiment: Tyrosinase inhibition test; format: biochemical; conditions: L-Dopa substrate; for IC50: read-out: 50% tyrosinase inhibitory concentration (IC50) (converted); for inhibition at 100 µg/mL / Tyrosinase inhibiting rate (%) (100 μg/ml): concentration of 100 μg/ml; for inhibition at 100 µg/mL: read-out: Tyrosinase inhibiting rate (%) (100 μg/ml); for inhibition at 125 µg/mL: concentration of 125 μg/ml, read-out: Tyrosinase inhibiting rate
T1 construct: purchased Sigma T3824
Description: Tyrosinase Inhibition Test
1. A tyrosinase solution using Tyrosinase (Sigma T3824) was prepared, wherein after diluted with a 0.1 M phosphate buffer, a 0.1 U/μl tyrosinase solution was obtained.
2. A L-Dopa solution using L-Dopa (Sigma D9628) was prepared, wherein after diluted with a 0.1 M phosphate buffer, a 1 mM L-Dopa solution was obtained and then was placed a dark environment.
3. A test sample solution was prepared comprising 10 mg/ml of a sample solution diluted with 100% of DMSO. Then the test sample solution was further diluted for require concentrations using a 0.1 M phosphate buffer.
4. 50 μl/well of the prepared test sample solution mentioned above was added into the wells of a 96 well plate (note that the same diluted concentration of DMSO for the test sample solution was also added into the wells of a 96 well plate and used for the blank group) and then 90 μl/well of the prepared 0.1 U/μl tyrosinase solution mentioned above was added thereto (the dC control group was added the 0.1 M phosphate buffer but not the 0.1 U/μl tyrosinase solution). The 96 well plate was placed under a temperature of 37° C. and mixed at 450 rpm for 5 minutes and then placed in an ELISA reader (Molecular Devices M2). The wave length of the ELISA reader was set at 492 nm to determine absorbance values of the solutions in the 96 well plate, wherein two absorbance values were determined and the average value therefrom was used as a background value. Next, 60 μl/well of the prepared 1 mM L-Dopa solution mentioned above was added to the 96 well plate (the dD control group was added the 0.1 M phosphate buffer not the 1 mM L-Dopa solution) and then the 96 well plate was placed under a temperature of 37° C. in a dark environment and mixed at 450 rpm for 15 minutes and then placed in a ELISA reader (Molecular Devices M2). The wave length of the ELISA reader was set at 492 nm to determine absorbance values of the solutions in the 96 well plate, wherein two absorbance values were determined and the average value therefrom was used as a measurement value. After the background value was subtracted from the measurement value, the tyrosinase inhibiting rate of the sample was calculated. The formula for calculating the tyrosinase inhibiting rate of the sample is shown in the following: (A−A0)−(B−B0)−dC−dD/(A−A0)×100% […]
A: absorbance value of the blank group
B: absorbance value of the sample
A0: background value of the blank group
B0: background value of the sample dC: absorbance variation for the sample only reacted with the L-Dopa dD: absorbance variation for the sample only reacted with the tyrosinase

[2] = system: Mouse melanoma B16-F0; experiment: Melanin inhibition test (melanin content analysis); format: cell-based; conditions: concentration of 100 μg/ml, B16 cells, 48 hours, read-out: Melanin content inhibiting rate
Description: Mouse melanoma B16-F0 (ATCC CRL-6322, bought from Food Industry Research and Development Institute (FIRDI) (331 Shih-Pin Road, Hsinchu, 300 Taiwan R.O.C.)) was cultured in a medium (Dulbecco's MEM, DMEM) containing 10% fetal bovine serum and 1% penicillin-streptomycin under a temperature of 37° C., in a 5% CO2 incubator.
2. Melanin Content Analysis
Inhibition of B16 Cell Melanin by Extracts:
After a test sample was added to the B16 cells in the medium for 48 hours, the medium was removed. The B16 cells were washed twice with the PBS buffer and then 300 μl of a 1N NaOH which was preheated at a temperature of 70° C. was added to the B16 cells and the B16 cells were, placed in a 60° C. incubator for 60 minutes. Next, 200 μl of the 1N NaOH which had been added to the B16 cells mention above was added to a 96 well plate to determined the absorbance value at 405 nm. The formula for calculating the melanin content is shown in the following: Melanin content=(M/M0)×100%
M: absorbance value for B16 cells being treated with sample
M0: absorbance value for B16 cells not being treated with sample

T1 sequence (C7FF04 1-392 limits assumed): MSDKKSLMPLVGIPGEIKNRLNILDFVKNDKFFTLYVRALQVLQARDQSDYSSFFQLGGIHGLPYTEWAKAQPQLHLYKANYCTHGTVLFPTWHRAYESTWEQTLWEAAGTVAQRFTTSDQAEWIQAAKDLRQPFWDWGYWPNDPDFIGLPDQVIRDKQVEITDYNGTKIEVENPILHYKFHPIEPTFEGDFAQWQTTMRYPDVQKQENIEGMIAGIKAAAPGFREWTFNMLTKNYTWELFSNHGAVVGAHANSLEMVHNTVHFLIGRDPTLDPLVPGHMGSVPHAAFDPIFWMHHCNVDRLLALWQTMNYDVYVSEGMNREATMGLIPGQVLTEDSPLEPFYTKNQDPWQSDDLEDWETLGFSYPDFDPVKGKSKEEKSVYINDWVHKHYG

IC50 [1]	inhibition at 100 µg/mL [1]	inhibition at 125 µg/mL [1]	Tyrosinase inhibiting rate (%) (100 μg/ml) [1]	Tyrosinase inhibiting rate (%) (100 μg/ml) ([1]; listed as compound 1)	Tyrosinase inhibiting rate (%) (100 μg/ml) ([1]; listed as Structure (III))	SMILES	inhibition at 100 µg/mL [2]
752 µM	10.4 ± 0.1%	13.2 ± 1.1%	–	–	–	O=C(/C=C/c1ccccc1O)NCCCCN(CCCNC(=O)/C=C/c1ccccc1O)C(=O)/C=C/c1ccccc1O [Compound 3]	–
< 63.4 µM and 62 µM	~62%	–	61.2 ± 2.5%	about 61.2±2.5%	–	O=C(/C=C/c1ccc(O)cc1)NCCCCN(CCCNC(=O)/C=C/c1ccc(O)cc1)C(=O)/C=C/c1ccc(O)cc1 [Compound 1]	~19.9%
335 µM	15 ± 1.7%	29.2 ± 2%	–	–	–	COc1cc(/C=C/C(=O)NCCCCN(CCCNC(=O)/C=C/c2ccc(O)c(OC)c2)C(=O)/C=C/c2ccc(O)c(OC)c2)ccc1O [Compound 2]	–
29.4 µM and < 30.1 µM	62.2 ± 27.2%	74.5 ± 16.1%	–	–	about 63%	O=C(/C=C/c1ccc(O)c(O)c1)NCCCCN(CCCNC(=O)/C=C/c1ccc(O)c(O)c1)C(=O)/C=C/c1ccc(O)c(O)c1 [Compound 4]	–
